Our source for the IC50 and EC50 values is patent US10980805B2, “Aza-pyridone compounds and uses thereof” (Janssen BioPharma, Inc., priority 2013, dated 2021).

As a reminder, the IC50 is the concentration that inhibits the measured activity by half. As usually defined, the EC50 is the concentration at which the effect is half-maximal.

Assay [1] deals with Full length EN PA (influenza PA endonuclease) (Influenza A virus, UniProt P15659). The experiment in a line: EN PA FRET inhibition assay. The assay is classed as biochemical. The note with it: FRET probe, mean of a minimum of two independent experiments, read-out: Potency (IC50 class, Table 3).
In assay [2] the test system is Influenza strain A549_A/WSN/33 (H1N1). As to the kind of experiment: Influenza antiviral assay (neuraminidase fluorescence readout). The assay is classed as cell-based, Influenza virus. The settings on record: Influenza A virus, read-out: % Inhibition (EC50 class, Table 2).

Where only a bound is given, the exact number is not on record here.

For `CCN1C[C@H](C2c3ccccc3CCc3ccccc32)n2ncc(=O)c(O)c2C1=O` [Compound 14-A], the IC50 in assay [1] was under 0.25 µM. Moreover, the EC50 in assay [2] is under 20 µM.
Taken in the same sequence, the figures for `CN1CC(C2c3cccc(F)c3CCc3c(F)cccc32)n2ncc(=O)c(O)c2C1=O` (centres unmarked) [Compound 83] were under 0.25 µM and under 20 µM.
On to `CN1CC(C2c3cc(F)ccc3CCc3c(F)cccc32)n2ncc(=O)c(O)c2C1=O` (centres unmarked) [Compound 56], for which, in assay [1], the concentration for half-maximal inhibition (IC50) was under 0.25 µM. Further, in assay [2], the EC50 was under 20 µM.
As to `CN1C[C@H](C2c3ccc(F)cc3CCc3cc(F)ccc32)n2ncc(=O)c(O)c2C1=O` [Compound 89-A], the IC50 in assay [1] is under 0.25 µM. Also, the EC50 in assay [2] was under 20 µM.
Taken in the same sequence, the figures for `CC(C)N1C[C@H]([C@H](c2ccccc2)n2ccc(C#N)n2)n2ncc(=O)c(O)c2C1=O` [Compound 127-A] were under 0.25 µM and under 20 µM.
Turning to `CC(C)N1C[C@@H](C2c3ccccc3CCc3ccccc32)n2ncc(=O)c(O)c2C1=O` [Compound 17-B], in assay [1], the IC50 was under 0.25 µM. Besides, the EC50 in assay [2] was under 20 µM.
Taken in the same sequence, the figures for `CN1CC(C(c2ccccc2)c2cccc(C#N)c2)n2ncc(=O)c(O)c2C1=O` (centres unmarked) [Compound 100] were under 0.25 µM and under 20 µM.
Regarding `CC(C)N1CC(C(c2ccccc2)n2ccc(C#N)n2)n2ncc(=O)c(O)c2C1=O` (centres unmarked) [Compound 127], the IC50 in assay [1] is under 0.25 µM. For the same molecule, in assay [2], the EC50 is under 20 µM.
For the molecule `CN1CC(C(c2ccc(F)cc2)c2ccc(F)cc2)n2ncc(=O)c(O)c2C1=O` (centres unmarked) [Compound 38], in assay [1], the IC50 was under 0.25 µM. Also, the EC50 in assay [2] is under 20 µM.
`CCN1CC(C(c2ccccc2)c2ccccc2)n2ncc(=O)c(O)c2C1=O` (centres unmarked) [Compound 5]: in assay [1], the IC50 is under 0.25 µM. Also, in assay [2], the EC50 was under 20 µM.
Consider `CN1C[C@@H](C2c3cc(F)ccc3CCc3c(F)cccc32)n2ncc(=O)c(O)c2C1=O` (some centres unmarked) [Compound 71], for which the IC50 in assay [1] is 0.25 to 1 µM. Further, in assay [2], the EC50 is 20 to 100 µM.
As for `CN1CC(C(c2ccccc2)c2cccc(Cc3cnn(C)c3)c2)n2ncc(=O)c(O)c2C1=O` (centres unmarked) [Compound 104], the IC50 in assay [1] is under 0.25 µM. Moreover, in assay [2], the EC50 is under 20 µM.
Taken in the same sequence, the figures for `CC(C)[C@H](N)C(=O)OCOc1c2n(ncc1=O)[C@@H](C(c1ccccc1)c1ccccc1)CN(C(C)C)C2=O` [Compound 96-A] were under 0.25 µM and under 20 µM.
For the molecule `[2H]c1c([2H])c([2H])c(C(c2c([2H])c([2H])c([2H])c([2H])c2[2H])[C@H]2CN(C(C)C)C(=O)c3c(O)c(=O)cnn32)c([2H])c1[2H]` [Compound 129], in assay [1], the IC50 is under 0.25 µM. Also, the EC50 in assay [2] is under 20 µM.
As to `CN1CC(C(c2ccccc2)c2cccc(OC3CC3)c2)n2ncc(=O)c(O)c2C1=O` (centres unmarked) [Compound 105], in assay [1], the IC50 is under 0.25 µM. In addition, the EC50 in assay [2] fell in the range of 20 to 100 µM.
For `CCN1C[C@H](C(c2cccc(F)c2)c2cccc(F)c2)n2ncc(=O)c(OC(=O)C(C)C)c2C1=O` [Compound 72-A], the IC50 in assay [1] was under 0.25 µM. The EC50 in assay [2] is under 20 µM.
Turning to `O=C1NCC(C(c2ccccc2)c2ccccc2)n2ncc(=O)c(O)c21` (centres unmarked) [Compound 8], in assay [1], the IC50 is under 0.25 µM. For the same molecule, the EC50 in assay [2] is under 20 µM.
Taken in the same sequence, the figures for `O=C1c2c(O)c(=O)cnn2[C@@H](C(c2ccccc2)c2ccccc2)CN1C1CCOCC1` [Compound 63-A] were under 0.25 µM and under 20 µM.
Taken in the same sequence, the figures for `CCC#Cc1ccn([C@@H](c2ccccc2)[C@@H]2CN(C)C(=O)c3c(O)c(=O)cnn32)n1` [Compound 125] were under 0.25 µM and under 20 µM.
`CN1CC(C(Cc2ccccc2)c2ccccc2)n2ncc(=O)c(O)c2C1=O` (centres unmarked) [Compound 103]: the IC50 in assay [1] was under 0.25 µM. For the same molecule, the EC50 in assay [2] is 20 to 100 µM.
Regarding `C#Cc1ccn([C@@H](c2ccccc2)[C@H]2CN(C)C(=O)c3c(O)c(=O)cnn32)n1` [Compound 109-B], the IC50 in assay [1] was under 0.25 µM. Besides, the EC50 in assay [2] is under 20 µM.
Consider `CN1C[C@@H](C2c3ccc(F)cc3CCc3cc(F)ccc32)n2ncc(=O)c(O)c2C1=O` [Compound 89-B], for which the IC50 in assay [1] is under 0.25 µM. Moreover, in assay [2], the EC50 is under 20 µM.
